Patent US11629143B2, “HipK4 inhibitors and uses thereof” (Vibliome Therapeutics, LLC, priority 2020, dated 2023)

Legend:
Assay in all cases: Kinase panel (mobility shift)
Format in all cases: biochemical
P38-a = P38-a (Homo sapiens, UniProt Q16539); details: at 5 um
Procedure, shortened: (§1)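 Tested at a single 5 um concentration within a 299-kinase panel, compounds were scored by electrophoretic mobility shift of a fluorescent substrate into product. Categories: A, 95% or greater; B, 90%-94%; C, 80%-89%.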

RIPK2 = RIPK2 (Homo sapiens, UniProt O43353)
Sequence of RIPK2 (O43353 whole entry, species assumed): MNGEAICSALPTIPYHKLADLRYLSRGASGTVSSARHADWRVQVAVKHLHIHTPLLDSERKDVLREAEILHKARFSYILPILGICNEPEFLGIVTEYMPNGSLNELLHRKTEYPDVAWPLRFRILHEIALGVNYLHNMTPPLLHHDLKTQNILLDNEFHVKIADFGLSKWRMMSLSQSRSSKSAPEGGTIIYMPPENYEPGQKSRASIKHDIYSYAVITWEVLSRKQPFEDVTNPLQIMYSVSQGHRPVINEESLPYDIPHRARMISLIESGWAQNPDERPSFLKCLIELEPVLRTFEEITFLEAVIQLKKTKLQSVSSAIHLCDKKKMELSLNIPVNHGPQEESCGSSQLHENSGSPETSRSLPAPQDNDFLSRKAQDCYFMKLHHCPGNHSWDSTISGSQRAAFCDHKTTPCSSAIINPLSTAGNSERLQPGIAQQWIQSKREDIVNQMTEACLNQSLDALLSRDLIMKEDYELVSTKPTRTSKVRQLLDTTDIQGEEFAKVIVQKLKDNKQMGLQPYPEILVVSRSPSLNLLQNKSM
Procedure, shortened: as §1

TAOK2 = biological target: T1, TAOK2 (Homo sapiens, UniProt Q9UL54)
T1 sequence (Q9UL54 1-1235): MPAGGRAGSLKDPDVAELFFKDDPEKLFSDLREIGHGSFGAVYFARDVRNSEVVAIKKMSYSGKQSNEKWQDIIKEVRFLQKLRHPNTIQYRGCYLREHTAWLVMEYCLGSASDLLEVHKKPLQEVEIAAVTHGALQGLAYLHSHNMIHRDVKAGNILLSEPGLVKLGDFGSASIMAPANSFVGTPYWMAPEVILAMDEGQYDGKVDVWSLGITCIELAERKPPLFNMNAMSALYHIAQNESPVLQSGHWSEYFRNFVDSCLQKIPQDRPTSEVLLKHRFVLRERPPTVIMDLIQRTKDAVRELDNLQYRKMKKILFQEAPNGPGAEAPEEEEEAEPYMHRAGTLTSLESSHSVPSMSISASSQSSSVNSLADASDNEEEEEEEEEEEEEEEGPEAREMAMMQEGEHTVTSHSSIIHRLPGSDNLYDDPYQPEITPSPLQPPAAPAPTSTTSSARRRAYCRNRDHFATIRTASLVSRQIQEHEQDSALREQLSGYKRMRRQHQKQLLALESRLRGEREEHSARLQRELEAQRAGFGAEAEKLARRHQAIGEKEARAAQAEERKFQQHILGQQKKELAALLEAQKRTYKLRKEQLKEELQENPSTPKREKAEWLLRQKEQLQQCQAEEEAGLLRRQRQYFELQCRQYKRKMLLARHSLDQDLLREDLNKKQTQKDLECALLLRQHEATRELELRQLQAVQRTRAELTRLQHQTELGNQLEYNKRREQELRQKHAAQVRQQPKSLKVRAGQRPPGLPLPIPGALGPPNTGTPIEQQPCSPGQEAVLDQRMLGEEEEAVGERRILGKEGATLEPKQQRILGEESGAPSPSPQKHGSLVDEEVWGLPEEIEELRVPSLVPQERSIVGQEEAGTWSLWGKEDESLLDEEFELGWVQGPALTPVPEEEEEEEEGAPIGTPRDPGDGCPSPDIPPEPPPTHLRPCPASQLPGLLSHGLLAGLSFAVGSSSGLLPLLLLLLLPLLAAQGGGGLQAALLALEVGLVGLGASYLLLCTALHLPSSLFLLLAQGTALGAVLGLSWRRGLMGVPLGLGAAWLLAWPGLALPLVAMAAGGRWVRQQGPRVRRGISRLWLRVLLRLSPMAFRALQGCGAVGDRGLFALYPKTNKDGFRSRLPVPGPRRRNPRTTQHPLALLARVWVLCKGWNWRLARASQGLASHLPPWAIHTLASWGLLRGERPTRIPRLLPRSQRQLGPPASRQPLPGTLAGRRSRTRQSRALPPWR
Procedure, shortened: as §1

TRKA = TRKA (Homo sapiens, UniProt P04629)
Sequence of TRKA (P04629 33-796, species assumed): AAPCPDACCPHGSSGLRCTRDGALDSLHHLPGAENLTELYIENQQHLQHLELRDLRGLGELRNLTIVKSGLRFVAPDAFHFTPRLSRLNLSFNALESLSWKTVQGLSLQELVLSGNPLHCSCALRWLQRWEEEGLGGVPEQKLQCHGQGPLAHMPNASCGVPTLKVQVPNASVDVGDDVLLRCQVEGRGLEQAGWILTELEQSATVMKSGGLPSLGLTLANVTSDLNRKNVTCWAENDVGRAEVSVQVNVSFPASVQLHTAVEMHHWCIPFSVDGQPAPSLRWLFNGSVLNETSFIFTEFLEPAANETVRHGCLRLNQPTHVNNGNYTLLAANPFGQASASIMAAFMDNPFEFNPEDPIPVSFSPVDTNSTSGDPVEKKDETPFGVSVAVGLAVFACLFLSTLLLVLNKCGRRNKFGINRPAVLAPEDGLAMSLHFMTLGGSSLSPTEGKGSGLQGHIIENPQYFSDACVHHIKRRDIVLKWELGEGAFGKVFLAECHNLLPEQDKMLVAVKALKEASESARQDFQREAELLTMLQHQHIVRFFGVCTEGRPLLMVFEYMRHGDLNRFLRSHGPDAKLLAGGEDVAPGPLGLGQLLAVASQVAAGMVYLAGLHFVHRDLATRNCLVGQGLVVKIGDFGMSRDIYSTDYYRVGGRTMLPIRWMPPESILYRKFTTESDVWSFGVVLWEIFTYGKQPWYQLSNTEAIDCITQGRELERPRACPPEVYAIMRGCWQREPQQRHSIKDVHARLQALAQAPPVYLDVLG
Procedure, shortened: as §1

TRKB = TRKB (Homo sapiens, UniProt Q16620)
Sequence of TRKB (Q16620 32-822, species assumed): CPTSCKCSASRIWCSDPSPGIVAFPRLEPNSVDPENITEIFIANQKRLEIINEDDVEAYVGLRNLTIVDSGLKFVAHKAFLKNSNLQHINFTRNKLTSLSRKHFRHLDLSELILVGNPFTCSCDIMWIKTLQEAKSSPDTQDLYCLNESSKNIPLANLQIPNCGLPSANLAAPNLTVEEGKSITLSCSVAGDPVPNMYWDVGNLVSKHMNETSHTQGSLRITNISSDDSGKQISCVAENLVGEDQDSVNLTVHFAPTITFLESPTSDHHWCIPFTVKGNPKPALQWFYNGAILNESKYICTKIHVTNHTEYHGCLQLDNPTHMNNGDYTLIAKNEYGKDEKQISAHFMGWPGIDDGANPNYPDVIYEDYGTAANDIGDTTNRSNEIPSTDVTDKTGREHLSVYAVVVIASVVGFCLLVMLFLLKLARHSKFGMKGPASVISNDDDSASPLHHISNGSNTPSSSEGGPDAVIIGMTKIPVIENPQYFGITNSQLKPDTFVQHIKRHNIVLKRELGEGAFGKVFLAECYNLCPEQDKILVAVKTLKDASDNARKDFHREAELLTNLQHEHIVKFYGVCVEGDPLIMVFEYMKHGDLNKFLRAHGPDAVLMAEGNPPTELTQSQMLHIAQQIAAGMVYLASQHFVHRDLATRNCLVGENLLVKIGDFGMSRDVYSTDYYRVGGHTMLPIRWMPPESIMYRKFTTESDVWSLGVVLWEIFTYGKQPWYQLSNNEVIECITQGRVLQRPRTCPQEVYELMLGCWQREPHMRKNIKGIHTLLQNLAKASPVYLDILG
Procedure, shortened: as §1

TYRO3 = biological target: T2, TYRO3 (Homo sapiens, UniProt Q06418)
T2 sequence (Q06418 41-890): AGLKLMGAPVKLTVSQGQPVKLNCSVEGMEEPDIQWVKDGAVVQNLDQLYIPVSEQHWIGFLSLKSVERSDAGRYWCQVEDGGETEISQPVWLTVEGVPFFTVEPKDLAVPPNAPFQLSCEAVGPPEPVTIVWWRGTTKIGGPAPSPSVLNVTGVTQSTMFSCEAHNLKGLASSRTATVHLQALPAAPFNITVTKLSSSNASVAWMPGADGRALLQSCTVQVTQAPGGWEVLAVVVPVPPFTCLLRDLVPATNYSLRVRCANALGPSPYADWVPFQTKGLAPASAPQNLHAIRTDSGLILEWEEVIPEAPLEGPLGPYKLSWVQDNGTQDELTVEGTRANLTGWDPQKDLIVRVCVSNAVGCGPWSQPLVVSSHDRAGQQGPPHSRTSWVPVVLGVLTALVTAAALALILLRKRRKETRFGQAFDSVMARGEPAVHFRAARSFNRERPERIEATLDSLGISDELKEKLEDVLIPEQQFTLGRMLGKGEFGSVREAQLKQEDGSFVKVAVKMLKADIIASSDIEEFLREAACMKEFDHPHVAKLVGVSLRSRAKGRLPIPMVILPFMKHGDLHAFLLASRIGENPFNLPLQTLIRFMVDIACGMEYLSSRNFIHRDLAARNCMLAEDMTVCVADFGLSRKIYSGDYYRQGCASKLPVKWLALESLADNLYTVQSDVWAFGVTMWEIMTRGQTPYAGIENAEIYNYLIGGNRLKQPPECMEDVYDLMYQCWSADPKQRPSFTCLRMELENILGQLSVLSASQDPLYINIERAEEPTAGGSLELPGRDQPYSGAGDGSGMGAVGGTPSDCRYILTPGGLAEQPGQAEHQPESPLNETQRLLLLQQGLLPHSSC
Procedure, shortened: as §1

Sequence of P38-a (Q16539 whole entry): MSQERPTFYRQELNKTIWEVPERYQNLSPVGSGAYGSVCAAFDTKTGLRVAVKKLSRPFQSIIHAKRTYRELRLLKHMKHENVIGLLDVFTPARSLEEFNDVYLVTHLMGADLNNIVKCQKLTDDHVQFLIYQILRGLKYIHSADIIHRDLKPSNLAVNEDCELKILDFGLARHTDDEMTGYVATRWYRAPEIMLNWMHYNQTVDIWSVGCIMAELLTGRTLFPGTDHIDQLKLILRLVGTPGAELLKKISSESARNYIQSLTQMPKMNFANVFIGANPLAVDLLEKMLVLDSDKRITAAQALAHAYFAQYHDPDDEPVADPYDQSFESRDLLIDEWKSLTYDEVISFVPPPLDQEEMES

SMILES	inhibition of kinase activity, P38-a (P38-a)	inhibition at 5 µM (RIPK2) [%]	inhibition at 5 µM (TAOK2) [%]	inhibition at 5 µM (TRKA) [%]	inhibition at 5 µM (TRKB) [%]	inhibition at 5 µM (TYRO3) [%]
CNC(=O)c1cc(Oc2ccc(NC(=O)c3nc(NC)sc3-c3ccc(F)cc3C)cc2F)ccn1 [Compound 23]	D (category D for 50-79)	80 to 89	50 to 79	80 to 89	80 to 89	80 to 89
CSc1nc(C(=O)Nc2ccc(Oc3cc4cnn(C)c4cc3Br)c(F)c2)c(-c2ccc(F)cc2)o1 [Compound 2]	D (category D for 50-79)	< 50	< 50	< 50	< 50	< 50
CSc1nc(C(=O)Nc2ccc(Oc3ccnc(C(=O)NC4COC4)c3)c(F)c2)c(-c2ccc(F)c(F)c2)o1 [Compound 37]	C (C=80%-89% at 5 um)	< 50	< 50	< 50	< 50	< 50
CSc1nc(C(=O)Nc2ccc(Oc3ccnc(C(=O)NC4CNC4)c3)c(F)c2)c(-c2ccc(F)cc2)o1 [Compound 29]	A (A=95% or greater at 5 um)	80 to 89	50 to 79	< 50	< 50	50 to 79
[2H]C([2H])([2H])NC(=O)c1cc(Oc2ccc(NC(=O)c3nc(SC)oc3-c3ccc(F)c(F)c3)cc2F)ccn1 [Compound 33]	C (C=80%-89% at 5 um)	50 to 79	< 50	50 to 79	< 50	50 to 79
CSc1nc(C(=O)Nc2ccc(Oc3ccnc(C(=O)NCC(F)(F)F)c3)c(F)c2)c(-c2ccc(F)cc2)o1 [Compound 40]	D (category D for 50-79)	< 50	< 50	< 50	< 50	< 50
CNC(=O)c1cc(Oc2ccc(NC(=O)c3nc(OC)oc3-c3ccc(F)s3)cc2F)ccn1 [Compound 25]	E (category E is less than 50%)	< 50	< 50	< 50	< 50	50 to 79
COc1nc(C(=O)Nc2ccc(Oc3ccnc(C(=O)NCC(F)(F)F)c3)c(F)c2)c(-c2ccc(F)cc2)o1 [Compound 43]	E (category E is less than 50%)	< 50	< 50	< 50	< 50	< 50
CNC(=O)c1cc(Oc2ccc(NC(=O)c3nc(S(C)(=O)=O)sc3-c3ccc(F)cc3)cc2F)ccn1 [Compound 13]	E (category E is less than 50%)	80 to 89	< 50	50 to 79	50 to 79	80 to 89
CNC(=O)c1cc(Oc2ccc(NC(=O)c3nc(NC)oc3-c3ccc(F)cc3)cc2F)ccn1 [Compound 14]	D (category D for 50-79)	90 to 94	80 to 89	80 to 89	90 to 94	80 to 89

Other lines, results leading:

inhibition of kinase activity, P38-a (P38-a)	inhibition at 5 µM (RIPK2) [%]	inhibition at 5 µM (TAOK2) [%]	inhibition at 5 µM (TRKA) [%]	inhibition at 5 µM (TRKB) [%]	inhibition at 5 µM (TYRO3) [%]	SMILES
E (category E is less than 50%)	≥ 95	< 50	80 to 89	90 to 94	≥ 95	CNC(=O)c1cc(Oc2ccc(NC(=O)c3nc(SC)oc3-c3ccc(F)cc3F)cc2)ccn1 [Compound 6]
D (category D for 50-79)	< 50	< 50	< 50	< 50	< 50	CSc1nc(C(=O)Nc2ccc(Oc3ccnc(C(=O)NC4CNC4)c3)c(F)c2)c(-c2ccc(F)s2)o1 [Compound 27]
D (category D for 50-79)	< 50	< 50	< 50	< 50	50 to 79	CSc1nc(C(=O)Nc2ccc(Oc3ccnc(N)c3Cl)c(F)c2)c(-c2ccc(F)cc2)o1 [Compound 1]
E (category E is less than 50%)	50 to 79	< 50	< 50	< 50	50 to 79	[2H]C([2H])([2H])NC(=O)c1cc(Oc2ccc(NC(=O)c3nc(SC)oc3-c3ccc(F)s3)cc2F)ccn1 [Compound 35]
C (C=80%-89% at 5 um)	50 to 79	< 50	< 50	< 50	50 to 79	CSc1nc(C(=O)Nc2ccc(Oc3ccnc(C(=O)NC4COC4)c3)c(F)c2)c(-c2ccc(F)cc2)o1 [Compound 31]
D (category D for 50-79)	50 to 79	< 50	< 50	< 50	50 to 79	COc1nc(C(=O)Nc2ccc(Oc3ccnc(C(=O)NC4COC4)c3)c(F)c2)c(-c2ccc(F)cc2)o1 [Compound 39]
E (category E is less than 50%)	90 to 94	< 50	80 to 89	80 to 89	90 to 94	CNC(=O)c1cc(Oc2ccc(NC(=O)c3nc(SC)oc3-c3ccc(F)cc3Cl)cc2)ccn1 [Compound 3]
